Data from patent US8536140B2, “Methods for treating inflammatory bowel disease” (MTI Meta Tech Inc., priority 2004, dated 2013).
One block for each compound: values may come before it.

Assays:
rat intestine = settings: dietary, rat intestine in vivo; cited from earlier work
CaCo-2 cells [1] = experiment: Apical and basolateral GD3 uptake, retention, transfer and metabolism in CaCo-2 cell monolayers on trans-well plates; assay type: in vitro ADME, human
Experimental: Polarized, differentiated monolayers of CaCo-2 cells grown on trans-well plates were used as a model to study apical and basolateral GD3 uptake. CaCo-2 cells were seeded at a density of 2.5×10^7 cells/ml on 0.4 μm pore inserts in 24 well trans-well plates (Corning Inc., Acton, Mass.). The apical (upper) and basolateral (lower) compartments contained 100 μl and 600 μl of EMEM-10, respectively. CaCo-2 cells were grown to confluence and were differentiated twenty days prior to delivering gangliosides. After 20 days, CaCo-2 cells were differentiated and polarized with intact tight junctions, as confirmed by alkaline phosphatase activity and trans-epithelial resistance measurements (data not shown). On day 21, CaCo-2 cells were transferred into Hank's MEM-4, a low serum, low calcium medium containing no antibiotics to limit serum and calcium interference with ganglioside uptake and antibiotic effects on tight junction permeability. Serum present in the media aided in GD3 solubilization and micelle formation during sonication. CaCo-2 cells were incubated under standard conditions in the absence (control, MEM-4 alone) or presence of purified ganglioside GD3 in MEM-4 for 6, 24 and 48 h at a concentration of 5 or 10 μg/ml. The time frame for exposing human intestine CaCo-2 cells to ganglioside GD3 was chosen to be 6-48 h as previous work on ganglioside GM1 uptake by cultured cells predicts slow and incomplete ganglioside absorption from the apical side. […] The ganglioside treated cells received GD3 on either the BBM (apical) side or the BLM side of CaCo-2 cell monolayers. GD3 delivery on the apical and BLM side of CaCo-2 cells was used as an in vitro model for enteral and intravenous nutrient delivery, respectively. After GD3 incubation, apical and BLM supernatants were collected and cells were washed with PBS and Tris buffer containing EDTA. CaCo-2 cells from each trans-well insert were trypsinized, pooled together in Tris-mannitol buffer and sonicated to form cell lysates. Cell lysates were saved for protein and ganglioside analysis.
Total and individual gangliosides were measured with a colorimetric sialic acid assay as ganglioside bound N-acetyl neuraminic acid (GG-NANA). An aliquot of purified ganglioside sample was dried under N2 gas and dissolved with 0.5 ml of ddH20 and 0.5 ml of resorcinol-HCl in screw-capped Teflon-lined tubes. The purple-blue color developed by reacting resorcinol reagent with ganglioside sialic acid at 160° C. for 8 min was extracted into butylacetate/butanol (85:15, v/v) solvent. Optical density was read by a spectrophotometer at 580 nm. For quantitative analysis, N-acetyl neuraminic acid (also known as sialic acid) was used as a standard.
The following equations were used to calculate the percentage and amount of ganglioside GD3 taken up, retained, transferred and metabolized by human intestinal CaCo-2 cells following brush border membrane or basolateral membrane GD3 delivery. For all calculations the values obtained from the control were subtracted off the test groups to correct for small levels of ganglioside present in the serum and cells. In Equation 1, the % uptake=[(amount delivered-amount remaining)*100%] divided by the amount delivered. In Equation 2, the % retention=[amount cell*100%] divided by the amount uptake. In Equation 3, the % transfer=[amount receiving compartment*100%] is divided by the amount uptake. In Equation 4, the % metabolism=[amount uptake−amount retained−amount transferred*100%] divided by the amount uptake.
Sample size determination for a one tailed comparison at 80% power to detect a 4-5 fold increase in GM1 levels in skin fibroblasts (0.2 nmol/mg protein to 0.9 nmol/mg protein, P<0.05) requires a sample size of 3. All data are expressed as the mean±the standard error of the mean for a sample size of n=4 (4 different cell passages) for intestine cell sensitivity experiments and n=3-4 (3-4 different cell passages) for ganglioside GD3 absorption experiments. […]

CaCo-2 cells [2] = experiment: Lactate dehydrogenase (LDH) release cytotoxicity assay; assay type: cell-based, human
Experimental: The human colon cancer cell line, CaCo-2, was obtained from American Type Culture Collection (Manassas, Va.) and was grown (passage 50-65) under standard incubator conditions (humidified atmosphere, 5% CO2, 37° C.) as adherent monolayer cultures in T-flasks containing Earle's minimum essential medium (EMEM). The cell culture growth medium (pH 7.2) was supplemented with 10% (v/v) fetal bovine serum, 1% (v/v) antibiotic/antimycotic, 26 mM sodium bicarbonate, 10 mM HEPES and 1 mM pyruvic acid. Media was changed every 2-3 days and cell density and viability was assessed with a hemocytometer using the trypan blue dye exclusion method.
Human intestine CaCo-2 cells were seeded at a density of 400,000 cells/ml on a 24 well plate. At confluence, cells were switched into EMEM-4 (4% FBS) and treated with a range of GD3 concentrations (0-64 μg/ml) similar or higher than the amount in human milk on the apical side for 24 h under standard incubator conditions. […] In brief, cell lysates and supernatants were incubated with an enzyme/substrate solution for 30 min at room temperature and the absorbance of colored formazan product was measured at 490 nm with a microtiter plate reader (Molecular Devices, Sunnyvale, Calif.). Absorbance background reading under kit conditions was less than 0.075. Data were expressed as percentage LDH release from cells. […]

Giardia cells = settings: after 2 h, cited from earlier work
[3] = Distribution of ganglioside to the intestine (discussion)

Compound: CC(C)CCC[C@@H](C)[C@H]1CC[C@H]2[C@@H]3CC=C4C[C@@H](O)CC[C@]4(C)[C@H]3CC[C@]12C [cholesterol]
Apical uptake efficiency (rat intestine): 50%

Apical GD3 uptake efficiency, maximum (CaCo-2 cells [1]; 10 μg/ml apical, after 24 h): 73%
GD3 uptake, basolateral compared to apical delivery (CaCo-2 cells [1]; 10 μg/ml, 6, 24 and 48 h): faster and more efficient
Time course of GD3 uptake (CaCo-2 cells [1]; 10 μg/ml, 6, 24 and 48 h at 37° C.): rapid and linear for the first 6 h
Amount of GD3 taken up from the basolateral membrane side when concentration doubled (CaCo-2 cells [1]; 5 or 10 μg/ml, 6 h at 37° C.): twice as high
Percent of GD3 taken up that was metabolized (CaCo-2 cells [1]; after 6 h apical exposure, 10 μg/ml): 96%
Drop of the percentage GD3 metabolized (CaCo-2 cells [1]; after 24 h apical exposure): 32%
GD3 incorporated (CaCo-2 cells [1]; apical delivery of 24 μg, after 24 h): 18.5 µg
Fate of basolateral membrane GD3 uptake (CaCo-2 cells [1]; following 24 h exposure, 10 μg/ml): completely metabolized
Compound: II^3 (NeuAc)2-LacCer [GD3]
LDH release from cells (CaCo-2 cells [2]; 64 μg/ml, 24 h): significant release of LDH
Concentration at which toxicity to enterocytes begins (CaCo-2 cells [2]; after 24 h exposure): greater than 32 μg/ml

Compound: II^3 NeuAc-GgOse4Cer [GM1]
Ganglioside incorporated (Giardia cells): 2.4 µg
Maximal uptake efficiency (Giardia cells; same amount of ganglioside): 10%
Fraction that could have been distributed to the intestine [3]: at most 6%

Fraction that could have been distributed to the intestine [3]: ≤ 47.4%
Compound: II^3 NeuAc-LacCer [GM3]

Compound: sphingomyelin
Apical uptake efficiency (rat intestine): 22-43%
